The values below come from patent US20110212968A1, “PHENETHYLAMIDE DERIVATIVES AND THEIR HETEROCYCLIC ANALOGUES” (priority 2008, published 2011).

Molecules are shown by their SMILES. A value given as a limit tells only on which side of the number the result lay.

One experiment has as its target T1, human orexin-1 receptor (Homo sapiens, UniProt O43613).
T1 construct: expressed in transfected cells; host or cells: CHO (Chinese hamster ovary) cells, kept under G418 selection
T1 sequence (O43613 1-425): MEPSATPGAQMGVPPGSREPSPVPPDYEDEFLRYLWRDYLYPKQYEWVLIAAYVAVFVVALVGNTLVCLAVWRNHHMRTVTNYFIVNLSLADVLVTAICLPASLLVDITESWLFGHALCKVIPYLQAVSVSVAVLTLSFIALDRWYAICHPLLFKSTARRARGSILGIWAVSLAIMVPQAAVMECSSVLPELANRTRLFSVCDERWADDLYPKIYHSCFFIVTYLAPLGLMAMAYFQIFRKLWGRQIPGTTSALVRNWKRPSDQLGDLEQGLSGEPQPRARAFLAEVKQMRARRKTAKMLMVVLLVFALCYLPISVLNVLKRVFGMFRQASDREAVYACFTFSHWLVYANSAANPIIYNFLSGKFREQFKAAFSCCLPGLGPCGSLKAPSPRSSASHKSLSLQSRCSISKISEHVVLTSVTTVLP
The experiment can be described thus: Intracellular calcium measurement (FLIPR Tetra), orexin receptor antagonistic activity, OX1. The class given is cell-based. As to conditions: CHO cells expressing human orexin-1 receptor, 3 nM orexin-A, conditions B, normalized (*) using IC50 of on-plate reference compound. The method in brief:
(§1)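 Recombinant CHO cells expressing human OX1 or OX2, loaded with fluo-4 AM plus probenecid, were preincubated with antagonist 10 min, then stimulated with 3 nM human orexin-A. Peak fluorescence was compared with vehicle; IC50 derived, sometimes normalized to an on-plate reference compound; two pipetting/cell-splitting conditions were used.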

A further experiment addresses T2, human orexin-2 receptor (Homo sapiens, UniProt O43614).
T2 construct: expressed in transfected cells; host or cells: CHO (Chinese hamster ovary) cells, kept under G418 selection
T2 sequence (O43614 1-444): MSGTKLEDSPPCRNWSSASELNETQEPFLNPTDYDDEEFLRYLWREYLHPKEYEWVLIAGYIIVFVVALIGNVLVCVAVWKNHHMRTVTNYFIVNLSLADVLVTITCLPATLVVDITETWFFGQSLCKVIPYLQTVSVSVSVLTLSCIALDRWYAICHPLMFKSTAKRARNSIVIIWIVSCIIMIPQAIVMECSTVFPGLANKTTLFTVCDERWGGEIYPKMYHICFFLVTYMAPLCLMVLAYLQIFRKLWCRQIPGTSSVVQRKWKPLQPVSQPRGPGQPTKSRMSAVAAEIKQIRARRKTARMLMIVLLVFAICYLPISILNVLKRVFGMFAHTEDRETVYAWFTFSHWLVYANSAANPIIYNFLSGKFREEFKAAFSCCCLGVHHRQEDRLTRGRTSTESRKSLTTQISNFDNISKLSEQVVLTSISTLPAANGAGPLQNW
The experiment can be described thus: Intracellular calcium measurement (FLIPR Tetra), orexin receptor antagonistic activity, OX2. The format is cell-based. As to conditions: CHO cells expressing human orexin-2 receptor, 3 nM orexin-A, conditions B, normalized (*) using IC50 of on-plate reference compound. The essentials: as §1
For orientation: Calcium flux is commonly read through the fluorescence of an indicator in the cells.

Take `COc1ccc(-c2nccnc2C(=O)N(CCc2c[nH]c3c(C)cccc23)CC2CC2)cc1` [Example 436, 3-(4-Methoxy-phenyl)-pyrazine-2-carboxylic acid cyclopropylmethyl-[2-(7-methyl-1H-indol-3-yl)-ethyl]-amide]: the figures for the IC50 on human orexin-1 receptor and on human orexin-2 receptor were 24 nM and 2 nM, respectively.
The like results for `COc1ccc(-c2nccnc2C(=O)N(CCc2c[nH]c3c(C)cccc23)CC2CC2)cn1` [Example 437, 3-(6-Methoxy-pyridin-3-yl)-pyrazine-2-carboxylic acid cyclopropylmethyl-[2-(7-methyl-1H-indol-3-yl)-ethyl]-amide] were, in that order, 43 nM and 3 nM.
For the compound `Cc1cccc2c(CCN(CC3CC3)C(=O)c3nccnc3-c3cncnc3)c[nH]c12` [Example 438, 3-Pyrimidin-5-yl-pyrazine-2-carboxylic acid cyclopropylmethyl-[2-(7-methyl-1H-indol-3-yl)-ethyl]-amide], the values for the IC50 at human orexin-1 receptor and at human orexin-2 receptor were over 11100 nM and 50 nM, respectively.
Take `COc1ncc(-c2nccnc2C(=O)N(CCc2c[nH]c3c(C)cccc23)CC2CC2)cn1` [Example 439, 3-(2-Methoxy-pyrimidin-5-yl)-pyrazine-2-carboxylic acid cyclopropylmethyl-[2-(7-methyl-1H-indol-3-yl)-ethyl]-amide]: the IC50 (in general, the concentration that gives 50% inhibition) on human orexin-1 receptor is 461 nM; on human orexin-2 receptor, 28 nM.
Turning to `COc1cccc2c(CCN(CC3CC3)C(=O)c3nccnc3-c3cccc(C(F)(F)F)c3)c[nH]c12` [Example 444, 3-(3-Trifluoromethyl-phenyl)-pyrazine-2-carboxylic acid cyclopropylmethyl-[2-(7-methoxy-1H-indol-3-yl)-ethyl]-amide], the IC50 came out at 6000 nM at human orexin-1 receptor and 214 nM on human orexin-2 receptor.
The like results for `O=C(c1cncnc1-c1ccccc1)N(CCc1c[nH]c2cc(F)c(Cl)cc12)CC1CC1` [Example 471, 4-Phenyl-pyrimidine-5-carboxylic acid [2-(5-chloro-6-fluoro-1H-indol-3-yl)-ethyl]-cyclopropylmethyl-amide] were, in that order, 97 nM and 25 nM.
For `CN(C)c1nc(C(=O)N(CCc2c[nH]c3cc(F)c(Cl)cc23)CC2CC2)c(-c2ccccc2)s1` [Example 472, 2-Dimethylamino-5-phenyl-thiazole-4-carboxylic acid [2-(5-chloro-6-fluoro-1H-indol-3-yl)-ethyl]-cyclopropylmethyl-amide], the IC50 on human orexin-1 receptor turned out to be 28 nM; on human orexin-2 receptor, 211 nM.
The corresponding values for `COc1ccc2[nH]cc(CCN(CC3CC3)C(=O)c3cnc(C)nc3-c3ccccc3)c2c1C` [Example 479, 2-Methyl-4-phenyl-pyrimidine-5-carboxylic acid cyclopropylmethyl-[2-(5-methoxy-4-methyl-1H-indol-3-yl)-ethyl]-amide] are 1380 nM and 48 nM.
`O=C(c1cncnc1-c1ccccc1)N(CCc1c[nH]c2ccccc12)CC1CC1` [Example 497, 4-Phenyl-pyrimidine-5-carboxylic acid cyclopropylmethyl-[2-(1H-indol-3-yl)-ethyl]-amide]: the IC50 at human orexin-1 receptor is 227 nM; at human orexin-2 receptor, 10 nM.
The corresponding values for `CCN(C)c1nc(C(=O)N(CCc2c[nH]c3ccccc23)CC2CC2)c(-c2ccccc2F)s1` [Example 500, 2-(Ethyl-methyl-amino)-5-(2-fluoro-phenyl)-thiazole-4-carboxylic acid cyclopropylmethyl-[2-(1H-indol-3-yl)-ethyl]-amide] are 257 nM and 190 nM.
Regarding `CCC(=O)Nc1ccc(-c2sc(C)nc2C(=O)N(CCc2c[nH]c3ccccc23)CC2CC2)cc1` [Example 501, 2-Methyl-5-(4-propionylamino-phenyl)-thiazole-4-carboxylic acid cyclopropylmethyl-[2-(1H-indol-3-yl)-ethyl]-amide], the figures for the IC50 on human orexin-1 receptor and on human orexin-2 receptor were 246 nM and 330 nM, respectively.
Take `Cc1ccc(-c2ncncc2C(=O)N(CCc2c[nH]c3ccccc23)CC2CC2)cc1C` [Example 504, 4-(3,4-Dimethyl-phenyl)-pyrimidine-5-carboxylic acid cyclopropylmethyl-[2-(1H-indol-3-yl)-ethyl]-amide]: the IC50 was 31 nM at human orexin-1 receptor and 17 nM on human orexin-2 receptor.
With `COc1cccc(-c2ncncc2C(=O)N(CCc2c[nH]c3ccccc23)CC2CC2)c1` [Example 506, 4-(3-Methoxy-phenyl)-pyrimidine-5-carboxylic acid cyclopropylmethyl-[2-(1H-indol-3-yl)-ethyl]-amide], the figures for the IC50 at human orexin-1 receptor and on human orexin-2 receptor were 259 nM and 15 nM, respectively.
In the case of `O=C(c1cncnc1-c1cccc(F)c1)N(CCc1c[nH]c2ccccc12)CC1CC1` [Example 510, 4-(3-Fluoro-phenyl)-pyrimidine-5-carboxylic acid cyclopropylmethyl-[2-(1H-indol-3-yl)-ethyl]-amide], the IC50 turned out to be 352 nM on human orexin-1 receptor and 25 nM at human orexin-2 receptor.
The corresponding values for `O=C(c1cncnc1-c1ccc(Br)c(Cl)c1)N(CCc1c[nH]c2ccccc12)CC1CC1` [Example 513, 4-(4-Bromo-3-chloro-phenyl)-pyrimidine-5-carboxylic acid cyclopropylmethyl-[2-(1H-indol-3-yl)-ethyl]-amide] are 36 nM and 17 nM.
As to `CCN(CCc1c[nH]c2ccccc12)C(=O)c1nccnc1-c1cccc(OC)c1` [Example 533, 3-(3-Methoxy-phenyl)-pyrazine-2-carboxylic acid ethyl-[2-(1H-indol-3-yl)-ethyl]-amide], the IC50 was determined as 2370 nM on human orexin-1 receptor and 258 nM at human orexin-2 receptor.
As to `CCN(CCc1c[nH]c2ccccc12)C(=O)c1cncnc1-c1ccc(Br)c(Cl)c1` [Example 536, 4-(4-Bromo-3-chloro-phenyl)-pyrimidine-5-carboxylic acid ethyl-[2-(1H-indol-3-yl)-ethyl]-amide], the IC50 on human orexin-1 receptor came out at 262 nM; at human orexin-2 receptor it was 9 nM.
With `CCN(CCc1c[nH]c2ccccc12)C(=O)c1cncnc1-c1cccc(OC)c1` [Example 541, 4-(3-Methoxy-phenyl)-pyrimidine-5-carboxylic acid ethyl-[2-(1H-indol-3-yl)-ethyl]-amide], the figures for the IC50 at human orexin-1 receptor and at human orexin-2 receptor were 2930 nM and 151 nM, respectively.
The corresponding values for `CCN(CCc1c[nH]c2ccccc12)C(=O)c1cncnc1-c1ccc(Cl)c(Cl)c1` [Example 544, 4-(3,4-Dichloro-phenyl)-pyrimidine-5-carboxylic acid ethyl-[2-(1H-indol-3-yl)-ethyl]-amide] are 177 nM and 15 nM.
The like results for `Cc1cccc(-c2ncncc2C(=O)N(CCc2c[nH]c3ccccc23)CC(F)(F)F)c1` [Example 549, 4-m-Tolyl-pyrimidine-5-carboxylic acid [2-(1H-indol-3-yl)-ethyl]-(2,2,2-trifluoro-ethyl)-amide] were, in that order, 1160 nM and 130 nM.
On to `Cc1cc(F)cc(-c2nccnc2C(=O)N(CCc2c[nH]c3ccccc23)CC(F)(F)F)c1` [Example 556, 3-(3-Fluoro-5-methyl-phenyl)-pyrazine-2-carboxylic acid [2-(1H-indol-3-yl)-ethyl]-(2,2,2-trifluoro-ethyl)-amide], for which the IC50 is 425 nM on human orexin-1 receptor and 212 nM at human orexin-2 receptor.
As for `COCCOc1cccc(-c2sc(C)nc2C(=O)N(CCc2c[nH]c3ccccc23)CC(=O)OC)c1` [Example 587, ([2-(1H-Indol-3-yl)-ethyl]-{5-[3-(2-methoxy-ethoxy)-phenyl]-2-methyl-thiazole-4-carbonyl}-amino)-acetic acid methyl ester], the results for the 50% inhibitory concentration (IC50) at human orexin-1 receptor and at human orexin-2 receptor were 404 nM and 38 nM, respectively.
Consider `COC(=O)CN(CCc1c[nH]c2ccccc12)C(=O)c1nc(C)sc1-c1cccc(Br)c1` [Example 590, {[5-(3-Bromo-phenyl)-2-methyl-thiazole-4-carbonyl]-[2-(1H-indol-3-yl)-ethyl]-amino}-acetic acid methyl ester], for which the 50% inhibitory concentration (IC50) at human orexin-1 receptor is 468 nM; on human orexin-2 receptor, 10 nM.
Consider `COC(=O)CN(CCc1c[nH]c2ccc(F)cc12)C(=O)c1cnc(C)nc1-c1ccc(Cl)c(Cl)c1` [Example 604, {[4-(3,4-Dichloro-phenyl)-2-methyl-pyrimidine-5-carbonyl]-[2-(5-fluoro-1H-indol-3-yl)-ethyl]-amino}-acetic acid methyl ester], for which the IC50 on human orexin-1 receptor was determined as 421 nM; at human orexin-2 receptor, 196 nM.
